# Where a SMILES comes first, the peptide text is derived from it. Bridges are numbered along the chain shown (N, C = ends). Where no end group is shown, it is not given here.
# Tests used:
# [1] = molecular target: T1, insulin degrading enzyme (IDE) (Rattus norvegicus, UniProt P35559); experiment: Sensitivity towards proteolytic degradation by IDE (activity on receptor cell line after incubation); assay type: in vitro ADME; details: 4 hours, 37° C., 0.6 μg/ml IDE
# T1 construct: purchased Merck 407241-50UG
# T1 sequence (P35559 1-1019): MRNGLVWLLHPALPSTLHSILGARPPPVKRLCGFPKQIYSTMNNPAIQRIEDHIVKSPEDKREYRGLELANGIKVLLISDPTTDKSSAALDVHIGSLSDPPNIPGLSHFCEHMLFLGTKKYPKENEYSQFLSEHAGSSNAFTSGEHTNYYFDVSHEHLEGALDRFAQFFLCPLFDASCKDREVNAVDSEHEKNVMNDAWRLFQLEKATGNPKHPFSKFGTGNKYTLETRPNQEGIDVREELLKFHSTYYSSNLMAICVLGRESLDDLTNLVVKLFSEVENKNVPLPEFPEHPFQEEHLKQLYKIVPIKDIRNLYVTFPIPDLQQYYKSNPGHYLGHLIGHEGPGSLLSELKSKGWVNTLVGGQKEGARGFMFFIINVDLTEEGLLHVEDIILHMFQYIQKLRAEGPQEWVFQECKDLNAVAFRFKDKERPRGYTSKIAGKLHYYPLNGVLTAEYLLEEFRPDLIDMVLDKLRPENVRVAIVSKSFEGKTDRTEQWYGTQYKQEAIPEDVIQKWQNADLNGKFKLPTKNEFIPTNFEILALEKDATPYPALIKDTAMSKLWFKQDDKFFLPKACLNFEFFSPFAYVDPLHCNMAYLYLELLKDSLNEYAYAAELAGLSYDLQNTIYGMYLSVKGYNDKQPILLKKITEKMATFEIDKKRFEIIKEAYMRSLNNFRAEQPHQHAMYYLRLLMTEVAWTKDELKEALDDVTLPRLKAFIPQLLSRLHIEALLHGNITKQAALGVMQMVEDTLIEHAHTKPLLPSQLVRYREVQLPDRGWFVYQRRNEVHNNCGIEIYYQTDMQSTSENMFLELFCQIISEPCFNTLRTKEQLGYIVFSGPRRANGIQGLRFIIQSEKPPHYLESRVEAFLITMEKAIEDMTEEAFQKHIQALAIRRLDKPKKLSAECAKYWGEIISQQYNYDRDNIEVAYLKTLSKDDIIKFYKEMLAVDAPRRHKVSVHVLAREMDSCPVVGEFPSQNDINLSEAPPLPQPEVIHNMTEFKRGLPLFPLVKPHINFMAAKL
# rat BNP receptor (NPR-A) = molecular target: T2, rat BNP receptor (NPR-A) (Rattus norvegicus, UniProt P18910); experiment: Fluorescence-based rat BNP receptor (NPR-A) GCaMP6 reporter cell line
# T2 construct: expressed in transfected cells; host or cells: CHO cell line stably expressing GCaMP6, co-transfected with CNGA2 and rat NPR-A
# T2 sequence (P18910 29-1057): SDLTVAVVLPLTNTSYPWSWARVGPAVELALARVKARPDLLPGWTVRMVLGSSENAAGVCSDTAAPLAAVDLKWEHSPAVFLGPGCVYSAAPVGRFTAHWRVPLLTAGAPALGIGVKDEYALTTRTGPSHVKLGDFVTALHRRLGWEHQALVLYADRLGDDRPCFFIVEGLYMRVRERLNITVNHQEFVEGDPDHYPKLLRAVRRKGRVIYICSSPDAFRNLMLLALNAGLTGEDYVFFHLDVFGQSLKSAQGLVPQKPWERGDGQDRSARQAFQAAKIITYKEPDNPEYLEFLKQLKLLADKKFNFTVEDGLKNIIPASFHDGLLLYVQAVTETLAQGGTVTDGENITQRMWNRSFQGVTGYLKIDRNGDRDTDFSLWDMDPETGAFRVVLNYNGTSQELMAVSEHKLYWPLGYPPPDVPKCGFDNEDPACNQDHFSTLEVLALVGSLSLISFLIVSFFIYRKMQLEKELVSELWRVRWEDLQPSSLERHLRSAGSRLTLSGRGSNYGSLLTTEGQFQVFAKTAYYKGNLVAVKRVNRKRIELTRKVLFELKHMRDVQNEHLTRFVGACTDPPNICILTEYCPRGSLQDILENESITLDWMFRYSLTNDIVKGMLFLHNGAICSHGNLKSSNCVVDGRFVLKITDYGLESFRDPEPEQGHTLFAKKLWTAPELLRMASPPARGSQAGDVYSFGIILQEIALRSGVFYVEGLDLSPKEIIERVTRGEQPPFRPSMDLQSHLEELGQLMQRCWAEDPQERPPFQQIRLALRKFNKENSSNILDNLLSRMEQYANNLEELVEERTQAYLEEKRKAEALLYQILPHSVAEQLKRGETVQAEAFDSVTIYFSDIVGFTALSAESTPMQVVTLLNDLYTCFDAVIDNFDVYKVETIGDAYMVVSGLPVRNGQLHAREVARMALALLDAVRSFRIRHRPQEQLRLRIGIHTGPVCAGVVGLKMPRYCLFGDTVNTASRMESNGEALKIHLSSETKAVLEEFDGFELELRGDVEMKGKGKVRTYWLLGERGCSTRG
# Excerpt: Activity data of BNP engrafted antibodies in NPR-A receptor cell line A luminescence-based rat BNP receptor (NPR-A) cell line was generated as described previously (Wunder et al. (2013), Eur J Pharmacol. 698: 131). Accordingly, a fluorescence-based rat BNP receptor (NPR-A) cell line was generated by co-transfecting a CHO cell line, stably expressing the fluorescent calcium sensor protein GCaMP6, with plasmid constructs encoding CNGA2 (cGMP biosensor) and rat NPR-A.
# BNP receptor GCaMP6 cells were cultured for one day on black, clear-bottom 384-well microtiter plates (2500 cells/well). After removal of the cell culture medium reporter cells were loaded for 20 min with Tyrode (130 mM NaCl, 5 mM KCl, 2 mM CaCl2, 20 mM HEPES, 1 mM MgCl2, 4.8 mM NaHCO3 at pH 7.4) containing a black masking dye at 37° C. and 5% CO2. IBMX (0.2 mM) was used to prevent cGMP degradation by endogenous phosphodiesterases.
# Fluorescence measurements (3 min, kinetic mode) were directly started upon agonist addition. Receptor ligands were added in Tyrode containing a black masking dye and 0.1% BSA. Measurements were done on a FLIPR Tetra®.
# [2] = molecular target: T3, neutral endopeptidase (NEP) (Homo sapiens, UniProt P08473); experiment: Sensitivity towards proteolytic degradation by NEP (activity on receptor cell line after incubation); assay type: in vitro ADME; details: 4 hours, 37° C., 0.6 μg/ml NEP
# T3 construct: purchased R&D Systems 1182-ZNC
# T3 sequence (P08473 whole entry): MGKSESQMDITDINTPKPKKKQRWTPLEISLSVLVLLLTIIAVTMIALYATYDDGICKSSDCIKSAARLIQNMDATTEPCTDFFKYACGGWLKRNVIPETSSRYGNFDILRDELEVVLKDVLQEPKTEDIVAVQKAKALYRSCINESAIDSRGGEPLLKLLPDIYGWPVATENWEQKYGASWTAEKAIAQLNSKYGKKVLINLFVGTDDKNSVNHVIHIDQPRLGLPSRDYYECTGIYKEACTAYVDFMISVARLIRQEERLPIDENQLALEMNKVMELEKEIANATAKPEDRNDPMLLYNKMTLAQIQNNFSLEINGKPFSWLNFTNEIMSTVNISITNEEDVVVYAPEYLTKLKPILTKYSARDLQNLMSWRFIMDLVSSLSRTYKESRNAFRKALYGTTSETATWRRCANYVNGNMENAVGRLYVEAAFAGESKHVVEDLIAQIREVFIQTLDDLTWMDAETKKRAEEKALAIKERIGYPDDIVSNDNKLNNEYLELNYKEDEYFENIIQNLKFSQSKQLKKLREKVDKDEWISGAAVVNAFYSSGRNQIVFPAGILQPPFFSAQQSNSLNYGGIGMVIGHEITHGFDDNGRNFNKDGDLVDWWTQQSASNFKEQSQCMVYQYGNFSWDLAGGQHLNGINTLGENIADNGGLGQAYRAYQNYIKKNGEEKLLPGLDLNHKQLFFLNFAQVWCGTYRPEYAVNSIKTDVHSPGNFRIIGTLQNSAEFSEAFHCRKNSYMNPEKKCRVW
# [3] = tested on: PE-contracted aortic rings; experiment: Vasorelaxation of isolated rat aortic rings contracted by phenylephrine
# Description: All experiments were conducted in accordance with institutional guidelines and approved by the local committee on animal experiments. Male Sprague-Dawley rats (weighing 250-300 g) were anesthetized with pentobarbital sodium (40 mg/kg i.p.), killed by decapitation, and exsanguinated. The thoracic aorta was excised and placed in ice-cold Krebs buffer of the following composition: 130 mM NaCl, 14.9 mM NaHCO3, 5.5 mM dextrose, 4.7 mM KCl, 1.18 mM KH2PO4, 1.17 mM MgSO47H2O, and 1.6 mM CaCl22H2O. The vessel was pinned in a Sylgard Petri dish filled with chilled Krebs' solution, cleaned of fat and connective tissue, and cut into ring segments of approximately 3 to 4 mm in length. […] Changes in isometric force were recorded using a PowerLab data acquisition system (software Lab Chart 7.0)
# After the equilibration period, aortic rings were challenged with 80 mM KCl to check tissue viability. Next, the endothelial integrity of the preparations was determined by verifying the responsiveness to acetylcholine (ACh, 1 μM) in vessels pre-contracted with Phenylephrine (PE, 1 μM). After wash-out and a period of equilibration, Phenylephrine (PE, 1 μM) was used to induce contraction, thereafter natriuretic peptides and natriuretic peptide engrafted IgGs were evaluated for vasorelaxation.
# [4] = tested on: spontaneously hypertensive rats; experiment: Blood pressure by radiotelemetry in conscious spontaneously hypertensive rats; assay type: in vivo, rat; design: drop in mean arterial blood pressure (MAP): dose or concentration left out as unconfirmed; details: intraperitoneal
# Description: Female spontaneously hypertensive rats (SHR/N Crl BR, Charles River) with a body weight of 210-300 g were used for these studies. All animals were housed in individual cages at 22-24° C. ambient temperature and maintained on a 12-hour light/dark cycle with free access to standard laboratory rat chow and water ad libitum. Telemeter (HD-10, DSI) implantation was performed a minimum of 14 days before animals were used for blood pressure measurements. Surgery was performed under aseptic conditions. After shaving the abdominal wall, a midline abdominal incision was made, and the fluid-filled sensor catheter was inserted upstream into the exposed descending aorta between the iliac bifurcation and the renal arteries. According to the DSI guidelines the tip of the telemetric catheter was located caudal to the renal arteries and secured by tissue adhesive. The transmitter body was affixed to the inner peritoneal wall before closure of the abdomen. […] Data are expressed as % of basal values±SEM of at least 4 animals per group. The basal value for each animal was calculated as the average of the values measured in two hours prior to substance application (7:00-9:00 AM). Data are then expressed as averages every half hour, starting 15 minutes post application. […]
sensitivity/resistance to proteolytic degradation by IDE [1],EC50 (rat BNP receptor (NPR-A)),sensitivity/resistance to proteolytic degradation by NEP [2],Compound,vasodilation in PE-contracted aortic rings [3],"Potency (log EC50 values), vasodilation ([3]; endothelium-intact rat aortic rings contracted by phenylephrine (1 μM))",drop in mean arterial blood pressure (MAP) [4],duration of effect on MAP ([4]; 500 g dose)
high sensitivity,–,–,"CC[C@H](C)[C@@H]1NC(=O)[C@H](CCCNC(=N)N)NC(=O)[C@H](CC(=O)O)NC(=O)[C@H](CCSC)NC(=O)[C@H](CCCNC(=N)N)NC(=O)CNC(=O)CNC(=O)[C@H](Cc2ccccc2)NC(=O)[C@@H](NC(=O)[C@H](CO)NC(=O)[C@H](CO)NC(=O)[C@H](CCCNC(=N)N)NC(=O)[C@H](CCCNC(=N)N)NC(=O)[C@H](CC(C)C)NC(=O)[C@@H](N)CO)CSSC[C@@H](C(=O)N[C@@H](CC(N)=O)C(=O)N[C@@H](CO)C(=O)N[C@@H](Cc2ccccc2)C(=O)N[C@@H](CCCNC(=N)N)C(=O)N[C@@H](Cc2ccc(O)cc2)C(=O)O)NC(=O)CNC(=O)[C@H](CC(C)C)NC(=O)CNC(=O)[C@H](CO)NC(=O)[C@H](CCC(N)=O)NC(=O)[C@H](C)NC(=O)CNC1=O [ANP, reference compound]",–,–,–,–
high sensitivity,2.9 nM,high sensitivity,"CC[C@H](C)[C@@H]1NC(=O)[C@H](CCCNC(=N)N)NC(=O)[C@H](CC(=O)O)NC(=O)[C@H]([C@@H](C)CC)NC(=O)[C@H](CCCCN)NC(=O)[C@H](CCC(N)=O)NC(=O)CNC(=O)[C@H](Cc2ccccc2)NC(=O)[C@@H](NC(=O)[C@H](CO)NC(=O)[C@H](CO)NC(=O)[C@H](CO)NC(=O)[C@H](Cc2c[nH]cn2)NC(=O)[C@H](C)NC(=O)[C@H](CCSC)NC(=O)[C@H](CCCCN)NC(=O)[C@H](CO)NC(=O)[C@@H](N)CC(N)=O)CSSC[C@@H](C(=O)N[C@@H](CC(=O)O)C(=O)NCC(=O)N[C@@H](CC(C)C)C(=O)N[C@@H](CCCNC(=N)N)C(=O)N[C@@H](CC(C)C)C(=O)N[C@@H](Cc2ccccc2)C(=O)O)NC(=O)CNC(=O)[C@H](CC(C)C)NC(=O)[C@H](CCCNC(=N)N)NC(=O)[C@H](CO)NC(=O)[C@H](C(C)C)NC(=O)[C@H](C)NC(=O)CNC1=O [BNP, reference compound] (H-NSKMAHSSSCFGQKIDRIGAVSRLGCDGLRLF-OH; disulfide 10-26; N-terminus and C-terminus assumed)",–,–,–,–
–,–,–,"ANP peptide: Rat ANP peptide (ADH-GM-10057T, Santai Labs) used as a reference (SLRRSSCFGGRIDRIGAQSGLGCNSFRY; disulfide 7-23; UniProt P01161 123-150, looked up) [reference compound]",dose-dependent vasodilation,−7.4,approximately 25%,6 to 8 h
